The values below come from US6696600B2, “L-DOPA ethyl ester salts and uses thereof” (priority 2001, dated 2004).

Like-named read-outs stand apart in the source and are kept apart here. A value given as a limit tells only on which side of the number the result lay.

Series [1] in a line: Exposure of hygroscopic salts to atmospheric air.
Series [2] can be described thus: Hygroscopicity test: weight gain of solid sample in humidity chamber at RH=80%. As to conditions: for hygroscopicity (in words): RH=80% screening; for weight gain in hygroscopicity test / appearance after exposure in a humidity chamber: RH=80%; for weight gain in hygroscopicity test: T=20±2° C., during 24 hrs. The series is classed as physicochemical. The source says:
There are many methods of quantitative evaluation of hygroscopicity of solid products without measuring the hygroscopic point. The most widely used method is based on measuring the weight gain of a solid sample in a humidity chamber. […] This method was used for screening the hygroscopicity of several LDEE salts. It also provides a comparison of the hygroscopic properties of different solids by comparison of water absorption rates under the same conditions.

A short description of series [3]: pKa and delta pKa (pKa LDEE − pKa acid). The class given is physicochemical. An excerpt: Preparation and selection of salts that have different physical properties are detailed in the literature. […]. PKa of LDEE free base is known to be 7.24 [8]. […]. This fact is illustrated in Example 1 below, in which the crystallization of LDEE palmitate was attempted. After dissolution of LDEE base and palmitic acid in absolute alcohol, the solution was cooled, and instead of forming a new salt, pure palmitic acid was crystallized out, and no solid crystalline salt was formed. […]

A short description of a further series: pH of water solution. The class given is physicochemical.
The nature of series [4]: Stability of dihydrates, impurity profile (HPLC), 8 days at 65° C. The series is classed as physicochemical. The procedure: The stability of succinate dihydrate and fumarate dihydrate were investigated under the following test conditions: 8 days at 65° C. in glass vial (air) (Table 1).
The conditions of series [5]: cited from earlier work; for pKa (first value): acid or acid salt used for salt preparation.
For series [6] the following is noted: background, from references; cited from earlier work.
The conditions of series [7]: background statement; cited from earlier work.
The mark [8] stands for this setting: End, 8 days at 65° C. in glass vial (air).

With `CC(=O)O.CCOC(=O)[C@@H](N)Cc1ccc(O)c(O)c1` [Example 2, LDEE Acetate], the “behaviour in atmospheric air (in words)” value in series [1] is listed as “deliquescent”. Moreover, in series [2] (RH = 80%), the “Color stability at RH = 80%” value is 1.5 h, the “Mean water absorption rate at RH = 80%” value worked out at 0.155 mol/kg/h, the “Material appearance after 24 hrs at RH = 80%” value is recorded as “Semi-solid melt” and the “Weight gain during 24 hrs at RH = 80%,%” value was 6.7%. For the same molecule, in series [2], the “hygroscopicity (in words)” value was “hygroscopic” and the “weight gain in hygroscopicity test” value is 6.7%. Also, in series [3], the “delta pKa pKaLDEE − pKaacid (first value)” value was determined as 2.48.

Take `CCOC(=O)[C@@H](N)Cc1ccc(O)c(O)c1.CS(=O)(=O)O` [Example 3, LDEE Mesylate]: in series [1], the “behaviour in atmospheric air (in words)” value is “deliquescent”. Also, in series [2] (RH = 80%), the “Color stability at RH = 80%” value was more than 24 h, the “Mean water absorption rate at RH = 80%” value worked out at 0.405 mol/kg/h, the “Material appearance after 24 hrs at RH = 80%” value is “Syrup” and the “Weight gain during 24 hrs at RH = 80%,%” value was found to be 17.5%. In addition, in series [2], the “hygroscopicity (in words)” value was “hygroscopic” and the “weight gain in hygroscopicity test” value was 17.5%. Besides, the “delta pKa pKaLDEE − pKaacid (first value)” value in series [3] was 6.04.

`CCOC(=O)[C@@H](N)Cc1ccc(O)c(O)c1.CCOC(=O)[C@@H](N)Cc1ccc(O)c(O)c1.O.O.O=C(O)CCC(=O)O` [Example 23, LDEE Succinate Dihydrate]: the “pH of water solution” value in “pH of water solution” came to 5.8. In series [2] (RH = 80%), the “Color stability at RH = 80%” value was more than 72 h, the “Mean water absorption rate at RH = 80%” value was 0.006 mol/kg/h, the “water absorption at RH=80% (in words)” value was “did not absorb water” and the “Material appearance after 24 hrs at RH = 80%” value is “White flowable powder”. Besides, the “Weight gain during 24 hrs at RH = 80%,%” value in series [2] (RH = 80%) amounted to 0.27%. In series [2], the “hygroscopicity (in words)” value is on record as “non-hygroscopic” and the “weight gain in hygroscopicity test” value stood at 0.27%. Also, the “appearance after exposure in a humidity chamber” value (shortened to “appearance after exposure”) in series [2] (about 72 hrs) is reported as “white flowable powder”. Besides, in series [3], the “delta pKa pKaLDEE − pKaacid (first value)” value turned out to be 3.08 and the “delta pKa pKaLDEE − pKaacid (second value)” value turned out to be 1.63. For the same molecule, in series [4] (setting [8]), the “Assay LDEE (%)” value stood at 73.46%, the “L-DOPA (%)” value was 0.56%, the “Unknown RRT = 0.83 (%)” value is 0.03% and the “cyc.L-DOPA (%)” value amounted to 0.03%. Further, in series [4] (Start), the “Assay LDEE (%)” value came to 74.1% and the “L-DOPA (%)” value is listed as 0.1%.

`CCCCCCCC/C=C\CCCCCCCC(=O)O` [Oleic acid]: the “pKa (first value)” value in series [5] is “˜4.8”.

With `CCOC(=O)[C@@H](N)Cc1ccc(O)c(O)c1.Cl` [hydrochloride salt of LDEE], the “hygroscopicity (in words)” value in series [6] is listed as “extremely hygroscopic”.

Consider `CCCCCCCCCCCCCC(=O)O` [Myristic acid], for which, in series [5], the “pKa (first value)” value was “˜4.8”.

As for `CCOC(=O)[C@@H](N)Cc1ccc(O)c(O)c1` [LDEE, L-DOPA ethyl ester], the “hygroscopicity (in words)” value in series [6] is on record as “non-hygroscopic”. For the same molecule, in the series “pH of water solution”, the “pH of water solution” value is reported as 8.2. Also, in series [2] (RH = 80%), the “Color stability at RH = 80%, hrs” value is “˜50 hrs”; the “Mean water absorption rate at RH = 80%” value amounted to 0.005 mol/kg/h; the “Material appearance after 24 hrs at RH = 80%” value is recorded as “White flowable powder”; the “Weight gain during 24 hrs at RH = 80%,%” value came to 0.24%. Further, in series [2], the “hygroscopicity (in words)” value is listed as “not a hygroscopic material”. In series [7], the “aqueous solution pH” value was 8.2. Further, the “delta pKa pKaLDEE − pKaacid (first value)” value in series [3] worked out at 0.

Regarding LDEE Phenylbutyrate [Example 10], the “pH of water solution” value in the series “pH of water solution” was 5.5-6.0. For the same molecule, in series [2] (RH = 80%), the “Color stability at RH = 80%” value came to 1.0 h, the “Mean water absorption rate at RH = 80%” value amounted to 0.023 mol/kg/h, the “Material appearance after 24 hrs at RH = 80%” value is listed as “Semi-solid melt” and the “Weight gain during 24 hrs at RH = 80%,%” value was found to be 1.0%. In series [2], the “hygroscopicity (in words)” value was “hygroscopic” and the “weight gain in hygroscopicity test” value is 1.03%. Also, the “delta pKa pKaLDEE − pKaacid (first value)” value in series [3] was 2.48.

Take `CCOC(=O)[C@@H](N)Cc1ccc(O)c(O)c1.CCOC(=O)[C@@H](N)Cc1ccc(O)c(O)c1.O.O.O=C(O)/C=C/C(=O)O` [Example 25, LDEE Fumarate Dihydrate]: the “pH of water solution” value in the series “pH of water solution” amounted to 5.5. In series [2] (RH = 80%), the “Color stability at RH = 80%” value is more than 48 h, the “Mean water absorption rate at RH = 80%” value stood at 0.0004 mol/kg/h, the “water absorption at RH=80% (in words)” value is given as “did not absorb water” and the “Material appearance after 24 hrs at RH = 80%” value is reported as “White flowable powder”. Besides, in series [2] (RH = 80%), the “Weight gain during 24 hrs at RH = 80%,%” value came to 0.04%. In series [2], the “hygroscopicity (in words)” value is “non-hygroscopic” and the “weight gain in hygroscopicity test” value was determined as 0.04%. The “appearance after exposure” value in series [2] (more than 48 hrs) is “white flowable powder”. Besides, in series [3], the “delta pKa pKaLDEE − pKaacid (first value)” value came out at 4.21 and the “delta pKa pKaLDEE − pKaacid (second value)” value worked out at 2.7. In series [4] (setting [8]), the “Assay LDEE (%)” value was found to be 75.0%, the “L-DOPA (%)” value was 0.27%, the “LD-LDEE (%)” value is on record as 0.03% and the “Unknown RRT = 0.72 (%)” value is 0.09%. Moreover, the “cyc.L-DOPA (%)” value in series [4] (setting [8]) was “L.T. 0.03%”. In series [4] (Start), the “Assay LDEE (%)” value was found to be 75.0%, the “L-DOPA (%)” value was determined as 0.11% and the “LD-LDEE (%)” value is “L.T. 0.03%”.

With `CCCCCCCCCCCCCCCCCC(=O)O` [Stearic acid], the “pKa (first value)” value in series [5] is “˜4.8”.

Consider `CCCCCCCC(=O)O.CCOC(=O)[C@@H](N)Cc1ccc(O)c(O)c1` [Example 19, LDEE Octanoate], for which, in “pH of water solution”, the “pH of water solution” value was 6.0-6.5. In series [2] (RH = 80%), the “Color stability at RH = 80%” value was more than 48 h, the “Mean water absorption rate at RH = 80%” value came to 0.005 mol/kg/h, the “water absorption at RH=80% (in words)” value is listed as “did not absorb water” and the “Material appearance after 24 hrs at RH = 80%” value was “White flowable powder”. Besides, the “Weight gain during 24 hrs at RH = 80%,%” value in series [2] (RH = 80%) came out at 0.22%. Moreover, in series [2], the “hygroscopicity (in words)” value is given as “non-hygroscopic” and the “weight gain in hygroscopicity test” value came out at 0.22%. Moreover, the “appearance after exposure” value in series [2] (about 48 hrs) is reported as “white flowable powder”. Further, the “delta pKa pKaLDEE − pKaacid (first value)” value in series [3] came to 2.35.

As for `CCCCCCCCCCCCCCCC(=O)O` [Palmitic acid], in series [5], the “pKa (first value)” value is reported as “˜4.8” and the pKa is recorded as 4.8. The molecule further yielded a DpKa in series [3] of 2.4.

Take `O=C(O)CCCc1ccccc1` [Phenyl Butyric acid]: the “pKa (first value)” value in series [5] is 4.76.

For orientation: pKa means the pH at which an ionisable group is half protonated.
